21 molecules from patent EP2881391A1, “Spiroindoline carbocycle derivatives and pharmaceutical compositions thereof” (Bayer Pharma Aktiengesellschaft, priority 2013, dated 2015) can be followed below.

The structures appear in SMILES notation.

This assay addresses T1, human GnRH receptor (Homo sapiens, UniProt P30968).
T1 construct: line established by Prof; Thomas Gudermann; host or cells: CHO cells
T1 sequence (P30968 1-328): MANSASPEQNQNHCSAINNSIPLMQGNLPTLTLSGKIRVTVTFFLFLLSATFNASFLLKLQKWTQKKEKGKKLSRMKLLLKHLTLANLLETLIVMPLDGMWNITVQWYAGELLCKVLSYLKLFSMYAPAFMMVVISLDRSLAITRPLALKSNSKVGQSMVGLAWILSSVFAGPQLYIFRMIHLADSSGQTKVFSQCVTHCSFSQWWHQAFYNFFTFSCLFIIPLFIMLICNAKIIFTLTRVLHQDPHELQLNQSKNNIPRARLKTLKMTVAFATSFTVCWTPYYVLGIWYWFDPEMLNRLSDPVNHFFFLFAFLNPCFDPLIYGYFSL
Description: IP-One HTRF assay (inhibition of GnRH-R activation by buserelin). The format is cell-based. Conditions: IP-One HTRF assay with buserelin (at EC80) stimulation; CHO cells stably expressing human GnRH receptor; tested 20 µM to 1 nM; read-out: Potency IC50. An outline of the steps: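 CHO cells stably expressing human GnRH-R, pre-incubated 20 min at 22°C with compound (10 concentrations, 20 µM to 1 nM, duplicates), then stimulated 1 h at 37°C with buserelin or LHRH at EC50 or EC80 in pH 7.4 buffer with 50 mM LiCl. IP1 read by HTRF 665/620 nm ratio; IC50 by 4-parameter fit.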
(In TR-FRET formats the signal depends on donor and acceptor labels being close together.)
Regarding `COc1cccc(S(=O)(=O)N2c3ccc(C(=O)NCc4ncccc4C(F)(F)F)cc3C3(CCC(O)(C(F)(F)F)CC3)C2C2CC2)c1` (stereo not drawn) [Example 44, 2'-cyclopropyl-4-hydroxy-1'-[(3-methoxyphenyl)su Ifonyl]-4-(trifluoromethyl)-N-{[3-(trifluoromethyl)pyridin-2-yl]methyl}-1',2'-dihydrospiro[cyclohexane-1,3'-indole]-5'-carboxamide], the half-inhibitory concentration (IC50) amounted to 403 nM.
As to `COc1cccc(S(=O)(=O)N2c3ccc(C(=O)NCc4ncccc4Cl)cc3C3(CCC(O)(C(F)(F)F)CC3)C2C2CC2)c1` (stereo not drawn) [Example 45, N-[(3-chloropyridin-2-yl)methyl]-2'-cyclopropyl-4-hydroxy-1'-[(3-methoxyphenyl)su Ifonyl]-4-(trifluoromethyl)-1',2'-dihydrospiro[cyclohexane-1,3'-indole]-5'-carboxamide], the IC50 is 756 nM.
On to `CS(=O)(=O)c1cccc(NC(=O)c2ccc3c(c2)C2(CCC(O)(C(F)(F)F)CC2)C(C2CC2)N3S(=O)(=O)c2ccc(F)cc2)c1` (stereo not drawn) [Example 46, 2'-cyclopropyl-1'-[(4-fluorophenyl)sulfonyl]-4-hydroxy-N-[3-(methylsulfonyl)phenyl]-4-(trifluoromethyl)-1',2'-dihydrospiro[cyclohexane-1,3'-indole]-5'-carboxamide], for which the half-inhibitory concentration (IC50) was 540 nM.
As for `NS(=O)(=O)c1cccc(NC(=O)c2ccc3c(c2)C2(CCC(O)(C(F)(F)F)CC2)C(C2CC2)N3S(=O)(=O)c2ccc(F)cc2)c1` (stereo not drawn) [Example 47, 2'-cyclopropyl-1 [(4-fluorophenyl)sulfonyl]-4-hydroxy-N-(3-sulfamoylphenyl)-4-(trifluoromethyl)-1',2'-dihydrospiro[cyclohexane-1,3'-indole]-5'-carboxamide], the IC50 came out at 618 nM.
In the case of `O=C(O)c1cccc(S(=O)(=O)N2c3ccc(C(=O)Nc4ccon4)cc3C3(CCC(O)(C(F)(F)F)CC3)C2C2CC2)c1` (stereo not drawn) [Example 48, 3-{[2'-cyclopropyl-4-hydroxy-5'-(1,2-oxazol-3-ylcarbamoyl)-4-(trifluoromethyl)spiro[cyclohexane-1,3'-indol]-1'(2'H)-yl]sulfonyl}benzoic acid], the IC50 was determined as 6710 nM.
The result for `O=C(O)c1cccc(S(=O)(=O)N2c3ccc(C(=O)NCc4ncc(C(F)(F)F)cc4F)cc3C3(CCC(O)(C(F)(F)F)CC3)C2C2CC2)c1` (stereo not drawn) [Example 49, 3-{[2'-cyclopropyl-5'-({[3-fluoro-5-(trifluoromethyl)pyridin-2-yl]methyl}carbamoyl)-4-hydroxy-4-(trifluoromethyl)spiro[cyclohexane-1,3'-indol]-1'(2'H)-yl]sulfonyl}benzoic acid] reads 4300 nM.
`O=C(O)c1cccc(S(=O)(=O)N2c3ccc(C(=O)NCc4ncccc4C(F)(F)F)cc3C3(CCC(O)(C(F)(F)F)CC3)C2C2CC2)c1` (stereo not drawn) [Example 50, 3-{[2'-cyclopropyl-4-hydroxy-4-(trifluoromethyl)-5'-({[3-(trifluoromethyl)pyridin-2-yl]methyl}carbamoyl)spiro[cyclohexane-1,3'-indol]-1'(2'H)-yl]sulfonyl}benzoic acid]: the IC50 stood at 3070 nM.
With `O=C(NC1(c2ccc(Cl)cc2)CC1)c1ccc2c(c1)C1(CCC(O)(C(F)(F)F)CC1)C(C1CC1)N2S(=O)(=O)c1ccc(F)cc1` (stereo not drawn) [Example 51, N-[1-(4-chlorophenyl)cyclopropyl]-2'-cyclopropyl-1'-[(4-fluorophenyl)sulfonyl]-4-hydroxy-4-(trifluoromethyl)-1',2'-dihydrospiro[cyclohexane-1,3'-indole]-5'-carboxamide], the IC50 is 551 nM.
The result for `O=C(Nc1cc[nH]n1)c1ccc2c(c1)C1(CCC(O)(C(F)(F)F)CC1)C(C1CC1)N2S(=O)(=O)c1ccc(F)cc1` (stereo not drawn) [Example 52, 2'-cyclopropyl-1'-[(4-fluorophenyl)sulfonyl]-4-hydroxy-N-(1H-pyrazol-3-yl)-4-(trifluoromethyl)-1',2'-dihydrospiro[cyclohexane-1,3'-indole]-5'-carboxamide] reads 716 nM.
Consider `O=C(NC1CCc2ccccc21)c1ccc2c(c1)C1(CCC(O)(C(F)(F)F)CC1)C(C1CC1)N2S(=O)(=O)c1ccc(F)cc1` (stereo not drawn) [Example 53, 2'-cyclopropyl-N-(2,3-dihydro-1H-inden-1-yl)-1'-[(4-fluorophenyl)sulfonyl]-4-hydroxy-4-(trifluoromethyl)-1',2'-dihydrospiro[cyclohexane-1,3'-indole]-5'-carboxamide], for which the IC50 turned out to be 611 nM.
With `O=C(Nc1cccc(C(F)(F)F)c1)c1ccc2c(c1)C1(CCC(O)(C(F)(F)F)CC1)C(C1CC1)N2S(=O)(=O)c1ccc(F)cc1` (stereo not drawn) [Example 54, 2'-cyclopropyl-1 [(4-fluorophenyl)sulfonyl]-4-hydroxy-4-(trifluoromethyl)-N-[3-(trifluoromethyl)phenyl]-1',2'-dihydrospiro[cyclohexane-1,3'-indole]-5'-carboxamide], the IC50 amounted to 2320 nM.
Take `O=C(Nc1cccc(Cl)c1)c1ccc2c(c1)C1(CCC(O)(C(F)(F)F)CC1)C(C1CC1)N2S(=O)(=O)c1ccc(F)cc1` (stereo not drawn) [Example 55, N-(3-chlorophenyl)-2'-cyclopropyl-1'-[(4-fluorophenyl)sulfonyl]-4-hydroxy-4-(trifluoromethyl)-1',2'-dihydrospiro[cyclohexane-1,3'-indole]-5'-carboxamide]: the IC50 amounted to 705 nM.
For `O=C(Nc1ccon1)c1ccc2c(c1)C1(CCC(O)(C(F)(F)F)CC1)C(C1CC1)N2S(=O)(=O)c1ccc(F)cc1` (stereo not drawn) [Example 56, 2'-cyclopropyl-1' [(4-fluorophenyl)sulfonyl]-4-hydroxy-N-(1,2-oxazol-3-yl)-4-(trifluoromethyl)-1',2'-dihydrospiro[cyclohexane-1,3'-indole]-5'-carboxamide] the value was 286 nM; for `O=C(Nc1ccon1)c1ccc2c(c1)C1(CCC(O)(C(F)(F)F)CC1)C(C1CC1)N2S(=O)(=O)c1cccc(C(=O)N2CCC2)c1` (stereo not drawn) [Example 57, 1'-{[3-(azetidin-1-ylcarbonyl)phenyl]sulfonyl}-2'-cyclopropyl-4-hydroxy-N-(1,2-oxazol-3-yl)-4-(trifluoromethyl)-1',2'-dihydrospiro[cyclohexane-1,3'-indole]-5'-carboxamide], 1220 nM.
`O=C(Nc1cncc(C(F)(F)F)c1)c1ccc2c(c1)C1(CCC(O)(C(F)(F)F)CC1)C(C1CC1)N2S(=O)(=O)c1ccc(F)cc1` (stereo not drawn) [Example 58, 2'-cyclopropyl-1'-[(4-fluorophenyl)sulfonyl]-4-hydroxy-4-(trifluoromethyl)-N-[5-(trifluoromethyl)pyridin-3-yl]-1',2'-dihydrospiro[cyclohexane-1,3'-indole]-5'-carboxamide]: the IC50 is 3120 nM.
In the case of `O=C(NCC1CC1)c1ccc2c(c1)C1(CCC(O)(C(F)(F)F)CC1)C(C1CC1)N2S(=O)(=O)c1ccc(F)cc1` (stereo not drawn) [Example 59, 2'-cyclopropyl-N-(cyclopropylmethyl)-1'-[(4-fluorophenyl)sulfonyl]-4-hydroxy-4-(trifluoromethyl)-1',2'-dihydrospiro[cyclohexane-1,3'-indole]-5'-carboxamide], the concentration for half-maximal inhibition (IC50) is 690 nM.
Consider `O=C(NCc1ccc(F)cc1Cl)c1ccc2c(c1)C1(CCC(O)(C(F)(F)F)CC1)C(C1CC1)N2S(=O)(=O)c1ccc(F)cc1` (stereo not drawn) [Example 60, N-(2-chloro-4-fluorobenzyl)-2'-cyclopropyl-1'-[(4-fluorophenyl)sulfonyl]-4-hydroxy-4-(trifluoromethyl)-1',2'-dihydrospiro[cyclohexane-1,3'-indole]-5'-carboxamide], for which the IC50 was found to be 432 nM.
Take `O=C(NCC1CCCCC1)c1ccc2c(c1)C1(CCC(O)(C(F)(F)F)CC1)C(C1CC1)N2S(=O)(=O)c1ccc(F)cc1` (stereo not drawn) [Example 61, N-(cyclohexylmethyl) -2'-cyclopropyl-1'-[(4-fluorophenyl)sulfonyl]-4-hydroxy-4-(trifluoromethyl)-1',2'-dihydrospiro[cyclohexane-1,3'-indole]-5'-carboxamide]: the IC50 was 741 nM.
Regarding `O=C(NCc1ccccc1Cl)c1ccc2c(c1)C1(CCC(O)(C(F)(F)F)CC1)C(C1CC1)N2S(=O)(=O)c1ccc(F)cc1` (stereo not drawn) [Example 62, N-(2-chlorobenzyl)-2'-cyclopropyl-1'-[(4-fluorophenyl)sulfonyl]-4-hydroxy-4-(trifluoromethyl)-1',2'-dihydrospiro[cyclohexane-1,3'-indole]-5'-carboxamide], the IC50 turned out to be 253 nM.
For `O=C(NCc1ncc(C(F)(F)F)cc1F)c1ccc2c(c1)C1(CCC(O)(C(F)(F)F)CC1)C(C1CC1)N2S(=O)(=O)c1cccc(C(=O)N2CCC2)c1` (stereo not drawn) [Example 63, 1'-{[3-(azetidin-1-ylcarbonyl)phenyl]sulfonyl}-2'-cyclopropyl-N-{[3-fluoro-5-(trifluoromethyl)pyridin-2-yl]methyl}-4-hydroxy-4-(trifluoromethyl)-1',2'-dihydrospiro[cyclohexane-1,3'-indole]-5'-carboxamide], the concentration for half-maximal inhibition (IC50) turned out to be 3210 nM.
On to `O=C(NCc1ncc(F)cc1Cl)c1ccc2c(c1)C1(CCC(O)(C(F)(F)F)CC1)C(C1CC1)N2S(=O)(=O)c1ccc(F)cc1` (stereo not drawn) [Example 64, N-[(3-chloro-5-fluoropyridin-2-yl)methyl]-2'-cyclopropyl-1'-[(4-fluorophenyl)sulfonyl]-4-hydroxy-4-(trifluoromethyl)-1',2'-dihydrospiro[cyclohexane-1,3'-indole]-5'-carboxamide], for which the IC50 came out at 519 nM.

Broadly, the IC50 is the concentration that gives 50% inhibition.
